What was measured:
ORYSAT (Rice, Tebonnet) = assay: Flooded paddy, post-transplant and postemergence rice tolerance; type: in vivo, Oryza sativa, (L.) Tebonnet; conditions: post-transplant rice, rated 3-4 weeks after treatment
Text: (§1) Results of herbicide evaluation are expressed on a rating scale (0-9). The scale is based upon a visual observation of plant stand, vigor, malformation, size, chlorosis and overall plant appearance as compared with a control.
(§2) Plastic containers containing weeds which are 3 to 5 cm tall and rice seedlings at the 1.5 to 2.5 leaf stage are flooded with water. The water is maintained at 1.5 to 3 cm above the soil surface for the duration of the experiment. Test compounds are applied as aqueous/acetone mixtures 50/50 v/v directly into the flood water to provide the equivalent of about 0.0320 to 0.2500 kg/ha of active ingredient. The treated containers are placed on greenhouse benches and cared for in accordance with conventional greenhouse procedures. Three to four weeks after treatment, the test is terminated and each container is examined and herbicidal effect rated according to the rating system provided in Example 87. The compounds evaluated are identified in Example 87 and plant species used are identified in Example 89.

CYPIR (Cyperus iria) [1] = assay: Flooded paddy, preemergence weed control; type: in vivo; conditions: rated 3-4 weeks after treatment, 0-9 rating scale
Procedure, shortened: (§3)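 Plants were established from seed or propagating organs in flooded silt loam, with the water surface held 1.5 to 3 cm above the soil for the entire experiment. Injury was assessed visually against a control and given a 0-9 score.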

SETVI (Setaria viridis) [2] = assay: Postemergence herbicidal evaluation; type: in vivo, (L.) Beau
Procedure, shortened: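 Seedlings about two weeks old were sprayed with compound in 50/50 acetone/water plus 0.5% TWEEN 20, at the equivalent of about 0.0040 to 1.000 kg/ha. Plants were kept in a greenhouse and visually rated 0-9 against a control four to five weeks after treatment. Repeat tests were averaged.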

[3] = system: MOOVA (Monochoria vaginalis); assay: Flooded paddy, preemergence weed control; type: in vivo, Presl.; conditions: rated 3-4 weeks after treatment, 0-9 rating scale
Procedure, shortened: as §3

[4] = system: CYPSE (Cyperus serotinus); assay: Flooded paddy, postemergence weed control; type: in vivo, Rottb.; conditions: postemergence weeds, rated 3-4 weeks after treatment
Text: as §1, §2

CYPIR (Cyperus iria) [5] = assay: Flooded paddy, postemergence weed control; type: in vivo; conditions: postemergence weeds, rated 3-4 weeks after treatment
Text: as §1, §2

[6] = system: ECHORC (Echinochloa oryzoides); assay: Flooded paddy, preemergence weed control; type: in vivo, Echinochloa oryzoides (Ard.) Fritsch.; conditions: rated 3-4 weeks after treatment, 0-9 rating scale
Procedure, shortened: as §3

[7] = system: ECHCG (Echinochloa crus-galli); assay: Preemergence herbicidal evaluation; type: in vivo, (L.) Beau; conditions: preemergence, rated 4-5 weeks after treatment
Procedure, shortened: (§4)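 Visual 0–9 rating versus control (stand, vigor, malformation, size, chlorosis, overall appearance), scored four to five weeks post-treatment. Preemergence spray of aqueous acetone solution onto freshly seeded soil cups; plants grown under conventional greenhouse care.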

SETVI (Setaria viridis) [8] = assay: Preemergence herbicidal evaluation; type: in vivo, (L.) Beau; conditions: preemergence, rated 4-5 weeks after treatment
Procedure, shortened: as §4

ZEAMX (Corn, Field) = assay: Preemergence herbicidal evaluation; type: in vivo, Zea mays, L.; conditions: preemergence, rated 4-5 weeks after treatment
[9] = system: TRZAWR (Wheat, Winter, cv Riband); assay: Postemergence herbicidal evaluation; type: in vivo, Triticum aestivum
Procedure, shortened: (§5)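 Seedlings grown about two weeks in flats, sprayed, then kept under standard greenhouse care. Rated visually 4–5 weeks after treatment on a 0–9 scale (stand, vigour, malformation, size, chlorosis, overall appearance) relative to untreated control; repeat tests averaged.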

[10] = system: GLXMAW (Soybean, Williams); assay: Preemergence herbicidal evaluation; type: in vivo, Glycine max, (L.) Merr. cv Williams; conditions: preemergence, rated 4-5 weeks after treatment
[11] = system: SAGPY (Sagittaria pygmaea); assay: Flooded paddy, postemergence weed control; type: in vivo, L.; conditions: postemergence weeds, rated 3-4 weeks after treatment
Text: as §1, §2

[12] = system: ECHORC (Echinochloa oryzoides); assay: Flooded paddy, postemergence weed control; type: in vivo, Echinochloa oryzoides (Ard.) Fritsch.; conditions: postemergence weeds, rated 3-4 weeks after treatment
Text: as §1, §2

[13] = system: MOOVA (Monochoria vaginalis); assay: Flooded paddy, postemergence weed control; type: in vivo, Presl.; conditions: postemergence weeds, rated 3-4 weeks after treatment
Text: as §1, §2

[14] = system: IPOHE (Ipomoea hederacea); assay: Postemergence herbicidal evaluation; type: in vivo, (L.) Jacq.
Procedure, shortened: as §5

Compound: Cn1c(C(F)(F)F)cc(=O)n(-c2ccc3snc(-c4ccsc4)c3c2)c1=O [Compound 1, 1-methyl-3-[3-(3-thienyl)-1,2-benzisothiazol-5-yl]-6-(trifluoromethyl)uracil]
- herbicide rating (0-9) ORYSAT (rice tolerance) (ORYSAT (Rice, Tebonnet); 0.0320 kg/ha into flood water): 7.0
- herbicide rating (0-9) ORYSAT (rice tolerance) (ORYSAT (Rice, Tebonnet); 0.0620 kg/ha into flood water): 7.0
- herbicide rating (0-9) ORYSAT (rice tolerance) (ORYSAT (Rice, Tebonnet); 0.1250 kg/ha into flood water): 7.0
- herbicidal rating, CYPIR (CYPIR (Cyperus iria) [1]; rate 0.0080 kg/ha): 9.0
- herbicidal rating, CYPIR (CYPIR (Cyperus iria) [1]; rate 0.0320 kg/ha): 9.0
- herbicidal rating, CYPIR (CYPIR (Cyperus iria) [1]; rate 0.1250 kg/ha): 9.0
- Postemergence herbicidal rating, SETVI (SETVI (Setaria viridis) [2]; rate 0.0320 kg/ha): 7.0
- Postemergence herbicidal rating, SETVI (SETVI (Setaria viridis) [2]; rate 0.0620 kg/ha): 6.5
- Postemergence herbicidal rating, SETVI (SETVI (Setaria viridis) [2]; rate 0.1250 kg/ha): 8.0
- herbicidal rating, MOOVA ([3]; rate 0.0080 kg/ha): 9.0
- herbicidal rating, MOOVA ([3]; rate 0.0320 kg/ha): 9.0
- herbicidal rating, MOOVA ([3]; rate 0.1250 kg/ha): 9.0
- herbicide rating (0-9) CYPSE ([4]; 0.0320 kg/ha into flood water): 2.0
- herbicide rating (0-9) CYPSE ([4]; 0.0620 kg/ha into flood water): 4.0
- herbicide rating (0-9) CYPSE ([4]; 0.1250 kg/ha into flood water): 7.0
- herbicide rating (0-9) CYPIR (CYPIR (Cyperus iria) [5]; 0.0320 kg/ha into flood water): 9.0
- herbicide rating (0-9) CYPIR (CYPIR (Cyperus iria) [5]; 0.0620 kg/ha into flood water): 9.0
- herbicide rating (0-9) CYPIR (CYPIR (Cyperus iria) [5]; 0.1250 kg/ha into flood water): 9.0
- herbicidal rating, ECHORC ([6]; rate 0.0080 kg/ha): 6.0
- herbicidal rating, ECHORC ([6]; rate 0.0320 kg/ha): 9.0
- herbicidal rating, ECHORC ([6]; rate 0.1250 kg/ha): 9.0
- ECHCG preemergence herbicidal rating ([7]; Rate 0.0620 kg/ha): 7.3
- ECHCG preemergence herbicidal rating ([7]; Rate 0.1250 kg/ha): 8.0
- ECHCG preemergence herbicidal rating ([7]; Rate 0.2500 kg/ha): 9.0
- SETVI preemergence herbicidal rating (SETVI (Setaria viridis) [8]; Rate 0.0620 kg/ha): 9.0
- SETVI preemergence herbicidal rating (SETVI (Setaria viridis) [8]; Rate 0.1250 kg/ha): 9.0
- SETVI preemergence herbicidal rating (SETVI (Setaria viridis) [8]; Rate 0.2500 kg/ha): 9.0
- ZEAMX preemergence herbicidal rating (ZEAMX (Corn, Field); Rate 0.0620 kg/ha): 6.0
- ZEAMX preemergence herbicidal rating (ZEAMX (Corn, Field); Rate 0.1250 kg/ha): 6.7
- ZEAMX preemergence herbicidal rating (ZEAMX (Corn, Field); Rate 0.2500 kg/ha): 7.0
- Postemergence herbicidal rating, TRZAWR ([9]; rate 0.0320 kg/ha): 3.5
- Postemergence herbicidal rating, TRZAWR ([9]; rate 0.0620 kg/ha): 3.5
- Postemergence herbicidal rating, TRZAWR ([9]; rate 0.1250 kg/ha): 4.3
- GLXMAW preemergence herbicidal rating ([10]; Rate 0.0620 kg/ha): 7.0
- GLXMAW preemergence herbicidal rating ([10]; Rate 0.1250 kg/ha): 9.0
- GLXMAW preemergence herbicidal rating ([10]; Rate 0.2500 kg/ha): 9.0
- herbicide rating (0-9) SAGPY ([11]; 0.0320 kg/ha into flood water): 4.0
- herbicide rating (0-9) SAGPY ([11]; 0.0620 kg/ha into flood water): 7.0
- herbicide rating (0-9) SAGPY ([11]; 0.1250 kg/ha into flood water): 9.0
- herbicide rating (0-9) ECHORC ([12]; 0.0320 kg/ha into flood water): 9.0
- herbicide rating (0-9) ECHORC ([12]; 0.0620 kg/ha into flood water): 9.0
- herbicide rating (0-9) ECHORC ([12]; 0.1250 kg/ha into flood water): 9.0
- herbicide rating (0-9) MOOVA ([13]; 0.0320 kg/ha into flood water): 9.0
- herbicide rating (0-9) MOOVA ([13]; 0.0620 kg/ha into flood water): 9.0
- herbicide rating (0-9) MOOVA ([13]; 0.1250 kg/ha into flood water): 9.0
- Postemergence herbicidal rating, IPOHE ([14]; rate 0.0320 kg/ha): 9.0
- Postemergence herbicidal rating, IPOHE ([14]; rate 0.0620 kg/ha): 9.0
- Postemergence herbicidal rating, IPOHE ([14]; rate 0.1250 kg/ha): 9.0

Compound: CCc1cc(-c2nsc3ccc(-n4c(=O)cc(C(F)(F)F)n(C)c4=O)cc23)c(CC)s1 [Compound 8, 3-[3-(2,5-diethyl-3-thienyl)-1,2-benzisothiazol-5-yl]-1-methyl-6-(trifluoromethyl)uracil]
- herbicide rating (0-9) ORYSAT (rice tolerance) (ORYSAT (Rice, Tebonnet); 0.0320 kg/ha into flood water): 1.0
- herbicide rating (0-9) ORYSAT (rice tolerance) (ORYSAT (Rice, Tebonnet); 0.0620 kg/ha into flood water): 2.0
- herbicide rating (0-9) ORYSAT (rice tolerance) (ORYSAT (Rice, Tebonnet); 0.1250 kg/ha into flood water): 2.0
- herbicidal rating, CYPIR (CYPIR (Cyperus iria) [1]; rate 0.0080 kg/ha): 8.5
- herbicidal rating, CYPIR (CYPIR (Cyperus iria) [1]; rate 0.0320 kg/ha): 9.0
- herbicidal rating, CYPIR (CYPIR (Cyperus iria) [1]; rate 0.1250 kg/ha): 9.0
- Postemergence herbicidal rating, SETVI (SETVI (Setaria viridis) [2]; rate 0.0320 kg/ha): 3.0
- Postemergence herbicidal rating, SETVI (SETVI (Setaria viridis) [2]; rate 0.0620 kg/ha): 4.0
- herbicidal rating, MOOVA ([3]; rate 0.0080 kg/ha): 9.0
- herbicidal rating, MOOVA ([3]; rate 0.0320 kg/ha): 9.0
- herbicidal rating, MOOVA ([3]; rate 0.1250 kg/ha): 9.0
- herbicide rating (0-9) CYPSE ([4]; 0.0320 kg/ha into flood water): 0.0
- herbicide rating (0-9) CYPSE ([4]; 0.0620 kg/ha into flood water): 0.0
- herbicide rating (0-9) CYPSE ([4]; 0.1250 kg/ha into flood water): 0.0
- herbicide rating (0-9) CYPIR (CYPIR (Cyperus iria) [5]; 0.0320 kg/ha into flood water): 9.0
- herbicide rating (0-9) CYPIR (CYPIR (Cyperus iria) [5]; 0.0620 kg/ha into flood water): 9.0
- herbicide rating (0-9) CYPIR (CYPIR (Cyperus iria) [5]; 0.1250 kg/ha into flood water): 9.0
- herbicidal rating, ECHORC ([6]; rate 0.0080 kg/ha): 2.0
- herbicidal rating, ECHORC ([6]; rate 0.0320 kg/ha): 9.0
- herbicidal rating, ECHORC ([6]; rate 0.1250 kg/ha): 9.0
- ECHCG preemergence herbicidal rating ([7]; Rate 0.0620 kg/ha): 0.0
- ECHCG preemergence herbicidal rating ([7]; Rate 0.1250 kg/ha): 0.0
- ECHCG preemergence herbicidal rating ([7]; Rate 0.2500 kg/ha): 9.0
- SETVI preemergence herbicidal rating (SETVI (Setaria viridis) [8]; Rate 0.0620 kg/ha): 9.0
- SETVI preemergence herbicidal rating (SETVI (Setaria viridis) [8]; Rate 0.1250 kg/ha): 9.0
- SETVI preemergence herbicidal rating (SETVI (Setaria viridis) [8]; Rate 0.2500 kg/ha): 9.0
- ZEAMX preemergence herbicidal rating (ZEAMX (Corn, Field); Rate 0.0620 kg/ha): 0.0
- ZEAMX preemergence herbicidal rating (ZEAMX (Corn, Field); Rate 0.1250 kg/ha): 0.0
- ZEAMX preemergence herbicidal rating (ZEAMX (Corn, Field); Rate 0.2500 kg/ha): 3.0
- Postemergence herbicidal rating, TRZAWR ([9]; rate 0.0320 kg/ha): 4.0
- Postemergence herbicidal rating, TRZAWR ([9]; rate 0.0620 kg/ha): 5.0
- GLXMAW preemergence herbicidal rating ([10]; Rate 0.0620 kg/ha): 0.0
- GLXMAW preemergence herbicidal rating ([10]; Rate 0.1250 kg/ha): 0.0
- GLXMAW preemergence herbicidal rating ([10]; Rate 0.2500 kg/ha): 0.0
- herbicide rating (0-9) SAGPY ([11]; 0.0320 kg/ha into flood water): 0.0
- herbicide rating (0-9) SAGPY ([11]; 0.0620 kg/ha into flood water): 0.0
- herbicide rating (0-9) SAGPY ([11]; 0.1250 kg/ha into flood water): 1.0
- herbicide rating (0-9) ECHORC ([12]; 0.0320 kg/ha into flood water): 3.5
- herbicide rating (0-9) ECHORC ([12]; 0.0620 kg/ha into flood water): 4.0
- herbicide rating (0-9) ECHORC ([12]; 0.1250 kg/ha into flood water): 5.0
- herbicide rating (0-9) MOOVA ([13]; 0.0320 kg/ha into flood water): 4.5
- herbicide rating (0-9) MOOVA ([13]; 0.0620 kg/ha into flood water): 4.5
- herbicide rating (0-9) MOOVA ([13]; 0.1250 kg/ha into flood water): 5.5
- Postemergence herbicidal rating, IPOHE ([14]; rate 0.0320 kg/ha): 9.0
- Postemergence herbicidal rating, IPOHE ([14]; rate 0.0620 kg/ha): 7.0

From US6706663B2, “Herbicidal 3-heterocyclic substituted benzisothiazole and benzisoxazole compounds” (Wyeth, priority 2000, dated 2004)
